Source: paper PMC9154192 (PLoS Biology, 2022)
Values after ≈ are worked out from the molar mass of the structure shown. Values joined by “and” are separate entries in the source; they are usually repeats but may differ in a detail not shown here. Identical values can stand only once. Like-named read-outs stand apart in the source and are kept apart here.

Columns and labels:
M. tuberculosis H37Rv = assay: microbe, parasite or virus in culture; format: cell-based, Mycobacterium tuberculosis; settings: for SI (CC50/MIC): ratio of CC50 for L929 fibroblasts to MIC for strain H37Rv
M. tuberculosis H37Ra = assay: microbe, parasite or virus in culture; format: cell-based, Mycobacterium tuberculosis
L929 murine fibroblasts = assay: in vitro; format: cell-based; settings: L929, MTT assay (Table S1)
Description: (§1) A549 human pulmonary epithelial cells (KCLB 10185), human embryonic kidney (HEK) 293 cells (KCLB 21573), human THP-1 leukemia cells (KCLB 40202), human neuroblastoma SH-SY5Y cells (KCLB 22266), Murine Raw 264.7 macrophages (KCLB 40071), and L929 murine fibroblasts (KCLB 10001) were purchased from the KCLB (Seoul, Korea). Cytotoxicity testing was performed using the MTT assay and the WST-1 cell viability assay as previously described.

[1] = test system: Murine Raw 264.7 macrophages; assay: in vitro; format: cell-based; settings: RAW, MTT assay (Table S1)
Description: as §1

[2] = test system: clinically isolated MDR, XDR, and TDR M. tuberculosis strains; assay: microbe, parasite or virus in culture; format: cell-based; settings: Mycobacterium tuberculosis
M. abscessus = assay: microbe, parasite or virus in culture; format: cell-based, Mycobacterium abscessus; settings: Mycobacteroides abscessus
M. arupense = assay: microbe, parasite or virus in culture; format: cell-based, Mycobacterium arupense; settings: Mycolicibacter arupensis
M. aubagnense = assay: microbe, parasite or virus in culture; format: cell-based, Mycobacterium aubagnense; settings: Mycolicibacterium aubagnense
M. avium = assay: microbe, parasite or virus in culture; format: cell-based; settings: Mycobacterium avium
M. bolletii = assay: microbe, parasite or virus in culture; format: cell-based, Mycobacterium bolletii; settings: Mycobacteroides abscessus
M. bovis = assay: microbe, parasite or virus in culture; format: cell-based; settings: Mycobacterium tuberculosis variant bovis
M. chitae = assay: microbe, parasite or virus in culture; format: cell-based, Mycobacterium chitae; settings: Mycolicibacterium chitae
M. colombiense = assay: microbe, parasite or virus in culture; format: cell-based; settings: Mycobacterium colombiense
M. conceptionense = assay: microbe, parasite or virus in culture; format: cell-based, Mycobacterium conceptionense; settings: Mycolicibacterium senegalense
M. fortuitum = assay: microbe, parasite or virus in culture; format: cell-based, Mycobacterium fortuitum; settings: Mycolicibacterium fortuitum
M. gilvum = assay: microbe, parasite or virus in culture; format: cell-based, Mycobacterium gilvum; settings: Mycolicibacterium gilvum
M. goodie = assay: microbe, parasite or virus in culture; format: cell-based; settings: Mycobacterium
M. gordonae = assay: microbe, parasite or virus in culture; format: cell-based; settings: Mycobacterium gordonae
M. heraklionease = assay: microbe, parasite or virus in culture; format: cell-based; settings: Mycobacterium
M. intracellulare = assay: microbe, parasite or virus in culture; format: cell-based; settings: Mycobacterium intracellulare
M. kansasii = assay: microbe, parasite or virus in culture; format: cell-based; settings: Mycobacterium kansasii
M. kyorinense = assay: microbe, parasite or virus in culture; format: cell-based; settings: Mycobacterium kyorinense
M. marinum = assay: microbe, parasite or virus in culture; format: cell-based; settings: Mycobacterium marinum
M. marseiliense = assay: microbe, parasite or virus in culture; format: cell-based; settings: Mycobacterium
M. massiliense = assay: microbe, parasite or virus in culture; format: cell-based, Mycobacterium massiliense; settings: Mycobacteroides abscessus
M. neoaurum = assay: microbe, parasite or virus in culture; format: cell-based, Mycobacterium neoaurum; settings: Mycolicibacterium neoaurum
M. peregrinum = assay: microbe, parasite or virus in culture; format: cell-based, Mycobacterium peregrinum; settings: Mycolicibacterium peregrinum
M. phlei = assay: microbe, parasite or virus in culture; format: cell-based, Mycobacterium phlei; settings: Mycolicibacterium phlei
M. phocaicum = assay: microbe, parasite or virus in culture; format: cell-based, Mycobacterium phocaicum; settings: Mycolicibacterium phocaicum
M. smegmatis = assay: microbe, parasite or virus in culture; format: cell-based, Mycobacterium smegmatis; settings: Mycolicibacterium smegmatis
M. szulgai = assay: microbe, parasite or virus in culture; format: cell-based; settings: Mycobacterium szulgai
M. xenopi = assay: microbe, parasite or virus in culture; format: cell-based; settings: Mycobacterium xenopi
[3] = format: cell-based; settings: positive control, presence of S9 mix
in vitro = format: cell-based, murine; settings: mouse
Description: as §1

[4] = Mycobacterium tuberculosis, H37RV, read-out: MIC
[5] = Mycobacterium tuberculosis, H37RA

`COC(=O)[C@H]1CCC(=O)N1Cc1cc2ccc(OCc3ccccc3)cc2c2cc(OC)c(OC)cc12` [PP3R, Methyl (R)-1-{[3-(Benzyloxy)-6,7-dimethoxy-9-phenanthryl]methyl}-5-oxopyrrolidine-2-carboxylate] showed an MIC (M. tuberculosis H37Rv; [4]) greater than 100 µg/mL and an MIC (M. tuberculosis H37Ra; [5]) greater than 100 µg/mL.

For `COC(=O)/C(=C/c1ccc(OCc2ccccc2)cc1)c1ccc(OC)c(OC)c1` [DPGA3], the MIC (M. tuberculosis H37Rv) was 3.1 µg/mL (≈ 7.66 µM), the “SI (CC50/MIC)” value (M. tuberculosis H37Rv) was greater than 32.2 and the MIC (M. tuberculosis H37Ra) was 3.1 µg/mL (≈ 7.66 µM). The CC50 (L929 murine fibroblasts) was greater than 100 µg/mL and the CC50 [1] was greater than 100 µg/mL.

With `CC[C@@H](CO)NCCN[C@@H](CC)CO` [EMB, ethambutol] the MIC (M. tuberculosis H37Rv; [4]) was 1.6 µg/mL (≈ 7.83 µM), the MIC ([2]; TDR-1) was 6.3 µg/mL (≈ 30.8 µM) and the MIC ([2]; TDR-2) was 6.3 µg/mL (≈ 30.8 µM). For the same compound, the MIC ([2]; TDR-3) was 6.3 µg/mL (≈ 30.8 µM), the MIC (M. abscessus) was 100 µg/mL (≈ 489 µM) and the MIC (M. arupense) was 0.4 µg/mL (≈ 1.96 µM). For the same compound, the MIC (M. aubagnense) was 50 µg/mL (≈ 245 µM), the MIC (M. avium) was 50 µg/mL (≈ 245 µM) and the MIC (M. bolletii) was greater than 100 µg/mL. It also gave an MIC (M. bovis) of 1.6 µg/mL (≈ 7.83 µM), an MIC (M. chitae) of 0.2 µg/mL (≈ 0.979 µM) and an MIC (M. colombiense) of 6.3 µg/mL (≈ 30.8 µM). The MIC (M. conceptionense) was 50 µg/mL (≈ 245 µM), the MIC (M. fortuitum) was 12.5 µg/mL (≈ 61.2 µM) and the MIC (M. gilvum) was 12.5 µg/mL (≈ 61.2 µM). The MIC (M. goodie) was 0.8 µg/mL (≈ 3.92 µM), the MIC (M. gordonae) was greater than 100 µg/mL and the MIC (M. heraklionease) was 100 µg/mL (≈ 489 µM). The MIC (M. intracellulare) was 3.1 µg/mL (≈ 15.2 µM), the MIC (M. kansasii) was 1.6 µg/mL (≈ 7.83 µM) and the MIC (M. kyorinense) was 50 µg/mL (≈ 245 µM). The MIC (M. marinum) was 3.1 µg/mL (≈ 15.2 µM), the MIC (M. marseiliense) was 100 µg/mL (≈ 489 µM) and the MIC (M. massiliense) was 100 µg/mL (≈ 489 µM). For the same compound, the MIC (M. neoaurum) was 6.3 µg/mL (≈ 30.8 µM), the MIC (M. peregrinum) was 3.1 µg/mL (≈ 15.2 µM) and the MIC (M. phlei) was 1.6 µg/mL (≈ 7.83 µM). The MIC (M. phocaicum) was 0.4 µg/mL (≈ 1.96 µM), the MIC (M. smegmatis) was 0.8 µg/mL (≈ 3.92 µM) and the MIC (M. szulgai) was 3.1 µg/mL (≈ 15.2 µM). For the same compound, the MIC (M. xenopi) was 25 µg/mL (≈ 122 µM).

In the case of `CCCCOc1ccc2cc(CN3C(=O)CC[C@@H]3C(=O)OC)c3cc(OC)c(OC)cc3c2c1` [PP2R], the MIC (M. tuberculosis H37Rv; [4]) is reported as greater than 100 µg/mL and the MIC (M. tuberculosis H37Ra; [5]) is reported as greater than 100 µg/mL.

In the case of `Nc1ccc2cc3ccccc3cc2c1` [2-AA], the “Individual revertant colony counts” value ([3]; TA98, 1.0 μg/plate) is reported as 402 colonies per plate and 414 colonies per plate, the Mean revertant colonies ([3]; TA98, 1.0 μg/plate) is reported as 408 colonies per plate and the “Individual revertant colony counts” value ([3]; TA100, 2.0 μg/plate) is reported as 555 colonies per plate and 578 colonies per plate. For the same compound, the Mean revertant colonies ([3]; TA100, 2.0 μg/plate) was 567 colonies per plate, the “Individual revertant colony counts” value ([3]; TA1535, 3.0 μg/plate) was 96 colonies per plate and 103 colonies per plate and the Mean revertant colonies ([3]; TA1535, 3.0 μg/plate) was 100 colonies per plate. The “Individual revertant colony counts” value ([3]; TA1537, 3.0 μg/plate) was 193 colonies per plate and 184 colonies per plate, the Mean revertant colonies ([3]; TA1537, 3.0 μg/plate) was 189 colonies per plate and the “Individual revertant colony counts” value ([3]; WP2uvrA (pKM101), 2.0 μg/plate) was 409 colonies per plate and 430 colonies per plate. The Mean revertant colonies ([3]; WP2uvrA (pKM101), 2.0 μg/plate) was 420 colonies per plate.

Work on `CCOc1ccc2cc(C(=O)OC)c3cc(OC)c(OC)cc3c2c1` [DPGA7] yielded an MIC (M. tuberculosis H37Rv; [4]) greater than 100 µg/mL, an MIC (M. tuberculosis H37Ra; [5]) greater than 100 µg/mL and a CC50 (in vitro; L929, MTT assay (Table S1)) greater than 100 µg/mL. The CC50 (in vitro; RAW, MTT assay (Table S1)) was greater than 100 µg/mL.

In the case of `COC(=O)c1cc2ccc(OCC(C)C)cc2c2cc(OC)c(OC)cc12` [DPGA5], the MIC (M. tuberculosis H37Rv; [4]) is reported as greater than 100 µg/mL, the “SI (CC50/MIC)” value (M. tuberculosis H37Rv) is reported as less than 0.4 and the MIC (M. tuberculosis H37Ra; [5]) is reported as greater than 100 µg/mL. For the same compound, the CC50 (in vitro; L929, MTT assay (Table S1)) was 40.3 µg/mL (≈ 109 µM) and the CC50 (in vitro; RAW, MTT assay (Table S1)) was greater than 100 µg/mL.

With `CCCCOc1ccc2cc(CO)c3cc(OC)c(OC)cc3c2c1` [DPGA11] the MIC (M. tuberculosis H37Rv; [4]) was greater than 100 µg/mL, the “SI (CC50/MIC)” value (M. tuberculosis H37Rv) was less than 0.7 and the MIC (M. tuberculosis H37Ra; [5]) was greater than 100 µg/mL. The CC50 (in vitro; L929, MTT assay (Table S1)) was 73.7 µg/mL (≈ 216 µM) and the CC50 (in vitro; RAW, MTT assay (Table S1)) was greater than 100 µg/mL.
